#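 Grown in 96-well plates, cells were treated for 48 hours with each compound at five concentrations. Insufficient inhibition: endpoint recorded as highest concentration tested. GI50 = concentration required for 50% inhibition of growth. Definition used: TGI = concentration required for complete inhibition of growth.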
# Columns and labels:
# Assay in all cases: DTP human tumour cell line panel, 48 h
# MDA-N = tested on: MDA-N
# HL-60(TB) leukemia = tested on: HL-60(TB) leukemia
# NCI-H522 lung = tested on: NCI-H522 lung
# HOP-62 NSCLC = tested on: HOP-62 NSCLC
# DU-145 prostate = tested on: DU-145 prostate
# SNB-19 CNS = tested on: SNB-19 CNS
# SF-539 CNS = tested on: SF-539 CNS
# K-562 leukemia = tested on: K-562 leukemia
# SK-MEL-28 melanoma = tested on: SK-MEL-28 melanoma
# HS 578T breast = tested on: HS 578T breast
Structure (SMILES),TGI (MDA-N),TGI (HL-60(TB) leukemia),TGI (NCI-H522 lung),TGI (HOP-62 NSCLC),TGI (DU-145 prostate),TGI (SNB-19 CNS),TGI (SF-539 CNS),TGI (K-562 leukemia),TGI (SK-MEL-28 melanoma),TGI (HS 578T breast),GI50 (HL-60(TB) leukemia),GI50 (DU-145 prostate),GI50 (SF-539 CNS),GI50 (SK-MEL-28 melanoma)
CCNC(=O)NNc1ncnc2c1c(-c1ccc(Cl)cc1)cn2-c1ccc(C)cc1,36.8 µM,34.7 µM,38.3 µM,35.2 µM,44.9 µM,34.5 µM,33.2 µM,46.5 µM,33.3 µM,,,,,
Nc1ncnc2c1sc(=S)n2-c1ccccc1,,> 100 µM,> 100 µM,> 100 µM,,> 100 µM,> 100 µM,> 100 µM,> 100 µM,,,,,
CC(=O)Oc1c2c(c(OC(C)=O)c3c1n(C(C)=O)c1ccccc1n3C(C)=O)n(C(C)=O)c1ccccc1n2C(C)=O,,6.1 µM,5.97 µM,53.5 µM,,53.8 µM,30.8 µM,> 100 µM,16.8 µM,,,,,
C=CC(C)(C)C1(CC(OC)OC)C(=O)N(C)c2ccccc21 (stereo unspecified),> 25 µM,> 25 µM,,> 25 µM,> 25 µM,> 25 µM,,> 25 µM,> 25 µM,> 25 µM,,,,
Fc1ccc2[nH]cc(-c3nc(-c4c[nH]c5ccncc45)cs3)c2c1,,4.58 µM,,,3.1 µM,,2.88 µM,,3.33 µM,,2.07 µM,1.69 µM,1.52 µM,1.9 µM
O=C(OCC1CCCN2CCCCC12)c1cccnc1 (stereo unspecified),> 100 µM,> 100 µM,,,> 100 µM,> 100 µM,> 100 µM,> 100 µM,> 100 µM,> 100 µM,,,,
Cc1c(OCCCOc2ccc3c(=O)cc(-c4ccccc4)oc3c2C)ccc2c(=O)cc(-c3ccccc3)oc12,,> 100 µM,> 100 µM,> 100 µM,,> 100 µM,> 100 µM,> 100 µM,> 100 µM,,,,,
CCCCOc1c(C(=O)O)cc(Br)cc1C(=O)O,> 100 µM,,> 100 µM,> 100 µM,,> 100 µM,> 100 µM,> 100 µM,> 100 µM,,,,,
C[N+](C)=c1ccc2nc3c(ccc4ccccc43)oc-2c1,,6.32 µM,8.07 µM,34.2 µM,,31.6 µM,32.2 µM,9.39 µM,28.4 µM,,,,,
CO[C@H]1CC[C@]2(C)C3=CC[C@@]4(C)C(CC[C@@H]4C(C)CC[C@@H](C)C(C)C)C(=CCC2C1)O3 (stereo partly specified),,> 25 µM,> 25 µM,> 25 µM,,> 25 µM,> 25 µM,> 25 µM,> 25 µM,,,,,
N/C(=N\S(=O)(=O)c1ccc(-c2ccccn2)s1)Nc1ccc(Cl)cc1,19.6 µM,,24.4 µM,39.2 µM,34.3 µM,31.5 µM,29.7 µM,66.2 µM,37.8 µM,59.6 µM,,,,
COC(=O)[C@@H]1[C@H](O)CCC2=C(CC(=O)c3ccoc3)[C@H](C)CC[C@]21C,> 50 µM,,,> 50 µM,,> 50 µM,> 50 µM,> 50 µM,> 50 µM,> 50 µM,,,,
O=C(NNS(=O)(=O)c1ccc(Br)cc1)c1ccc(Cl)cc1NC(=O)C12CC3CC(CC(C3)C1)C2,32.2 µM,67.9 µM,25.1 µM,47.8 µM,33.4 µM,28.7 µM,32.3 µM,24.4 µM,,40.7 µM,,,,
CC(C(=O)NCCNC(=O)CCC(=O)N(C)O)C(=O)NCCNC(=O)CCC(=O)N(C)O,> 100 µM,> 100 µM,> 100 µM,> 100 µM,> 100 µM,> 100 µM,,> 100 µM,> 100 µM,> 100 µM,,,,
Brc1c2nc3ccccc3nc2n2ccc3ccccc3c12,,> 100 µM,> 100 µM,> 100 µM,,> 100 µM,> 100 µM,> 100 µM,> 100 µM,,,,,
C[N+](C)(C)CCOC(=O)/C=C/c1cnc[nH]1,,> 500 µM,> 500 µM,> 500 µM,,> 500 µM,> 500 µM,> 500 µM,> 500 µM,,,,,
CC(C)(C)c1ccc(O)c(C(c2ccc([N+](=O)[O-])cc2)c2cc(C(C)(C)C)ccc2O)c1,,3.95 µM,4.32 µM,3.39 µM,6.14 µM,5.36 µM,3.46 µM,7.35 µM,3.72 µM,18.7 µM,,,,
Nc1nc(Nc2ccc(Cl)cc2)sc1C(=O)c1c[nH]c2ccccc12,25.3 µM,82.8 µM,,46.9 µM,38.9 µM,38 µM,31.6 µM,> 100 µM,39.8 µM,71.3 µM,,,,
C=C1C2C[C@@H]3OC4CC5O[C@]6(CC5OC4C(C)C3OC(=O)CC3CC[C@@H]4OC5C7OC8C[C@](CCC9CC(=C)[C@H](CCC(C[C@H]1C)O2)O9)(OC7C4O3)O[C@@H]85)C[C@@H]1O[C@@]2(CC(C)[C@@H]3OC(CC(=O)CCO)C(O)C[C@@H]3O2)CC(C)[C@@H]1O6 (stereo partly specified),,,< 0.001 µM,0.0034 µM,,0.816 µM,< 0.001 µM,,,,,,,
COC(=O)[C@H]1[C@@H](O)[C@@]2(O)c3c(OC)cc(OC)cc3O[C@@]2(c2ccc3c(c2)OCO3)[C@@H]1c1ccccc1,2.34 µM,0.763 µM,0.741 µM,0.68 µM,4.51 µM,0.00512 µM,0.0279 µM,,,2.13 µM,,,,
Cc1ccc(S(=O)(=O)NC(=O)NCCc2ccc(O)c(O)c2)cc1,,> 100 µM,> 100 µM,> 100 µM,> 100 µM,> 100 µM,> 100 µM,> 100 µM,> 100 µM,> 100 µM,,,,
Cc1c(-c2coc(-c3ccccc3)n2)c(=O)n(-c2ccccc2)n1C,,> 100 µM,> 100 µM,> 100 µM,,> 100 µM,> 100 µM,,> 100 µM,,,,,
O=C(/C=C/c1ccc(OCc2ccccc2)cc1)NCc1ccc(C(=O)NCc2ccccc2)cc1,> 100 µM,,> 100 µM,> 100 µM,> 100 µM,> 100 µM,> 100 µM,> 100 µM,> 100 µM,> 100 µM,,,,
CCOC(=O)CCC(NC(=O)c1ccc(Nc2nc3cc(C(F)(F)F)ccc3nc2C(=O)OCC)cc1)C(=O)OCC (stereo unspecified),21.3 µM,> 100 µM,42.2 µM,27 µM,> 100 µM,22.6 µM,25.2 µM,> 100 µM,27.9 µM,,,,,

# — PubChem BioAssay (NCI)
